Assays:
femoral bone fracture = assay: Bone quality examined after 35 treatment days (decalcified and non-decalcified); format: in vivo, Sprague Dawley rats; conditions: following 35 treatment days, none-decalcification
Method: Pseudo-fractures were created by making a trough on one surface of the femoral shaft through one side of the cortex. The compositions were administered locally by daily injection. Animals: Naive male Sprague Dawley rats (SD rats), 12 weeks old, around 350 g. Right leg was treated while the left leg serves as a control (vehicle).
Bone quality was examined after 35 treatment days. For the G1−B+L group, cell proliferation was improved by >44% compared to untreated bone.
Bone endosteal & periosteal proliferation, defect fill and bone quality were evaluated following 35 treatment days of femoral bone fracture with β-caryophyllene (none-decalcification).

[1] = test system: Human primary osteoblast cells; conditions: osteoblasts, 24 and 96 hours, tested 0 to 6,561 μM
Method: (§1) In vitro cytotoxicity & proliferation assay (basal) are being performed on human osteoblasts and stem cells monolayers.
Human primary osteoblast cells are maintained in a 37° C. humidified incubator with 5% CO2 atmosphere. Cells are cultured in Primary Osteoblast Media containing Primary Osteoblast Culture Supplement and 1% of the penicillin/streptomycin stock solution.

MUTZ-3 cells = conditions: MUTZ-3, 24 and 96 hours, tested 0 to 6,561 μM
Method: as §1
As a human primary osteoclast cell is unable to proliferate, MUTZ-3, a human cell line model for osteoclast differentiation is also being used. MUTZ-3 cells are maintained in a 37° C. humidified incubator with 5% CO2 atmosphere. Cells are cultured in Dulbecco's modified Eagle's Medium (DMEM) supplemented with 10% foetal calf serum and 1% of the penicillin streptomycin stock solution.

(−)-β-caryophyllene
bone quality (femoral bone fracture): Significant improvement
defect fill (femoral bone fracture): Significant improvement
endosteal and periosteal proliferation (femoral bone fracture): Significant improvement
concentration without significant cytotoxic effect [1]: up to 27 μM
concentration without significant cytotoxic effect (MUTZ-3 cells): up to 27 μM

Reference: patent US20240382450A1, “COMPOSITION OF B-CAR[…] A STATIN, AND METHODS OF USING SAME” (OrthoTreat Ltd., priority 2021, published 2024)
